Earlier results, collected in publication PMC4594385 (Journal of Medical Physics / Association of Medical …, 2015).

Details: compared with femur uptake at 4 h; ref Banerjee et al. [1]

O=P([O-])(O)CN(CCN(CP(=O)([O-])O)CP(=O)(O)O)CP(=O)([O-])O.[153Sm+3] [^153Sm-EDTMP]
Bone uptake: 3.72 %ID/g
